IC50 data for 13 molecules are collected here from patent publication US9670142B2, “1,3-diaminocyclopentane carboxamide derivatives” (Merck Patent GmbH, priority 2013, dated 2017).

human fatty acid synthase FASN, sequence (P49327 whole entry): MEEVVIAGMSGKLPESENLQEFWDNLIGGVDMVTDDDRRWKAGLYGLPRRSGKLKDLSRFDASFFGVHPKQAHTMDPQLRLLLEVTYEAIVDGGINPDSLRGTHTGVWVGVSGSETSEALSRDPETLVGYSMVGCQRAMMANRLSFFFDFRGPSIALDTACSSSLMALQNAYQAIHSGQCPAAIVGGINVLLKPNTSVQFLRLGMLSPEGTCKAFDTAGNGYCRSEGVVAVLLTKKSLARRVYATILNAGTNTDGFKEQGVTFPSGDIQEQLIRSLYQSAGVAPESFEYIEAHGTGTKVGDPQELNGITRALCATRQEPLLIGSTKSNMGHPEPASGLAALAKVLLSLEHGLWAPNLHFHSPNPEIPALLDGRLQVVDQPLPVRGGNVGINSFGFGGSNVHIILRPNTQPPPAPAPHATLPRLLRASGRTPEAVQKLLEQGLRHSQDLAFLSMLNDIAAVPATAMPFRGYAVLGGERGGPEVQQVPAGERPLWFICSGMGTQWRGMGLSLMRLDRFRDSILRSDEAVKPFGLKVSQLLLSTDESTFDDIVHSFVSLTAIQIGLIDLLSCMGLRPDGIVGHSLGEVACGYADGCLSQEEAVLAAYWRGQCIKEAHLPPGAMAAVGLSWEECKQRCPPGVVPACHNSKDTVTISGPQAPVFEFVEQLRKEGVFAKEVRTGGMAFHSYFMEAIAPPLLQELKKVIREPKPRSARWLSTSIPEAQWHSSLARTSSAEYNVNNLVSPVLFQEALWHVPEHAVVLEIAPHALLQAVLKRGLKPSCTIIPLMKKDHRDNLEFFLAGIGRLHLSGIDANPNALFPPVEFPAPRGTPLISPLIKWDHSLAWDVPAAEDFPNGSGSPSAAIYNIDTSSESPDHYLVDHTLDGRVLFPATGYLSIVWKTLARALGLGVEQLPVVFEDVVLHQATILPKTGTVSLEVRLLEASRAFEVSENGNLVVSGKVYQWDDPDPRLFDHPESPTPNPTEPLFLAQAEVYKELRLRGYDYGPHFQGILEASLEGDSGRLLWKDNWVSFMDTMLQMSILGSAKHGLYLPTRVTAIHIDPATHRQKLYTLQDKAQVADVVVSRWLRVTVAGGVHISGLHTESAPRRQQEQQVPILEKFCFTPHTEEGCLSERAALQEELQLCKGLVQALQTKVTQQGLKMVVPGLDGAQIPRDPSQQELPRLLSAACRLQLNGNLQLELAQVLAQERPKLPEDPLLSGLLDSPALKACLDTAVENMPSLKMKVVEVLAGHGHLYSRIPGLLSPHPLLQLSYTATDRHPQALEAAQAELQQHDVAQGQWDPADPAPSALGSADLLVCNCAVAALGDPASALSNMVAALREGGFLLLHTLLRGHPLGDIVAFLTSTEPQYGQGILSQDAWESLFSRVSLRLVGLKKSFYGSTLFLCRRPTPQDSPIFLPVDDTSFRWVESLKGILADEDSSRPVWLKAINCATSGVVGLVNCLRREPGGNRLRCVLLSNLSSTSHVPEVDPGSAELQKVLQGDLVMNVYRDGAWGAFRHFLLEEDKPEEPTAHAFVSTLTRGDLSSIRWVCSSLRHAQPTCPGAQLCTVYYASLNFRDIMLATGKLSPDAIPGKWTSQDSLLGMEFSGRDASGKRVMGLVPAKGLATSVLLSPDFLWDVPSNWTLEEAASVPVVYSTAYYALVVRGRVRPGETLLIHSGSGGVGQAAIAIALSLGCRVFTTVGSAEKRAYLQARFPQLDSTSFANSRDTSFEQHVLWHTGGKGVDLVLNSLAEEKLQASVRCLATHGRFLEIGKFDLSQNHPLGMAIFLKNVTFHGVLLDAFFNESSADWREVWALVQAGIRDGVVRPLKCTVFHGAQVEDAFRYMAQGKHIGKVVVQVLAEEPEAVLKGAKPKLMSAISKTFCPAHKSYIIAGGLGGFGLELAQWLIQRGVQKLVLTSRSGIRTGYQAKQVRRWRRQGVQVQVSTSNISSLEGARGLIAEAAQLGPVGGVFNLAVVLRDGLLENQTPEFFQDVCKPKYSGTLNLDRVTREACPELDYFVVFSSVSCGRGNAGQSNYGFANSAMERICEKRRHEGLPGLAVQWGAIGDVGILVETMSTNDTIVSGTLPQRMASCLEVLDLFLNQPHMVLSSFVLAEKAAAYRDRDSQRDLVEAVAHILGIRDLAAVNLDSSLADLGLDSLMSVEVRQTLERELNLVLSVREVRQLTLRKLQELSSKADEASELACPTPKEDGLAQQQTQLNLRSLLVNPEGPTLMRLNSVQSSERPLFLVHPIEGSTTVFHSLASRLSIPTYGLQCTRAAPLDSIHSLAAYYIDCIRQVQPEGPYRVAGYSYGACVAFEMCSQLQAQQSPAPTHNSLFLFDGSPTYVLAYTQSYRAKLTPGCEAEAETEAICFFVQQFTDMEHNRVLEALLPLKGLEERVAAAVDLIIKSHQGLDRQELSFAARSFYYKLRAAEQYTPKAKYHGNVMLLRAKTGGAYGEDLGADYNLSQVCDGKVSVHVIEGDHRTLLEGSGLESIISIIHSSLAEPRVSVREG

This experiment addresses human fatty acid synthase FASN (Homo sapiens (Human), UniProt P49327). Description: Biochemical activity testing of human fatty acid synthase FASN (NADPH fluorescence intensity enzyme assay). As to conditions: human recombinant full-length fatty acid synthase. The method in brief: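 In-house Sf9-expressed full-length enzyme (3 μL of 40 nM) in 50 mM potassium phosphate pH 7.0 with glutathione, BSA and Tween-20, plus NADPH (2 μL of 200 μM), preincubated ≥15 min with compound (10 concentrations from 30 μM final, 1% DMSO). Acetyl-CoA/malonyl-CoA added; NADPH fluorescence (ex 340/em 460 nm) read before and after 30 min at room temperature, difference used for IC50.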
Regarding `CCCC1CCC(c2ccc(-c3ccc(C(=O)N(C)[C@@H]4CC[C@H](NC(=O)CC)C4)cc3)cc2)OC1` (stereo partly drawn) [Compound A89, 4′-(5-propyl-tetrahydro-pyran-2-yl)-biphenyl-4-carboxylic acid methyl-((1R,3S)-3-propionylamino-cyclopentyl)-amide], the IC50 fell in the range of 300 to 3000 nM.
Under `CCC(=O)N[C@H]1CC[C@@H](N(C)C(=O)c2ccc(-c3ccc(C)cc3C)cc2)C1` [Compound A90, 2′,4′-dimethyl-biphenyl-4-carboxylic acid methyl-((1R,3S)-3-propionylamino-cyclopentyl)-amide] stands less than 300 nM; under `CCC(=O)N[C@H]1CC[C@@H](N(C)C(=O)c2ccc(-c3ccc4[nH]nnc4c3)cc2)C1` [Compound A91, 4-(1H-benzotriazol-5-yl)-N-methyl-N-((1R,3S)-3-propionylamino-cyclopentyl)-benzamide], less than 300 nM; under `CCC(=O)N[C@H]1CC[C@@H](N(C)C(=O)c2ccc(-c3ccc(Cl)cc3F)cc2)C1` [Compound A92, 4′-chloro-2′-fluoro-biphenyl-4-carboxylic acid methyl-((1R,3S)-3-propionylamino-cyclopentyl)-amide], less than 300 nM.
Under `CCC(=O)N[C@H]1CC[C@@H](N(C)C(=O)c2ccc(-c3ccc4[nH]c(=O)[nH]c4c3)cc2)C1` [Compound A93, N-methyl-4-(2-oxo-2,3-dihydro-1H-benzimidazol-5-yl)-N-((1R,3S)-3-propionylamino-cyclopentyl)-benzamide] stands less than 300 nM; under `CCC(=O)N[C@H]1CC[C@@H](N(C)C(=O)c2ccc(-c3ccc4c(c3)CC(=O)N4)cc2)C1` [Compound A94, N-methyl-4-(2-oxo-2,3-dihydro-1H-indol-5-yl)-N-((1R,3S)-3-propionylamino-cyclopentyl)-benzamide], less than 300 nM.
For the molecule `CCC(=O)N[C@H]1CC[C@@H](N(C)C(=O)c2ccc(-c3ccc4[nH]ccc4c3)cc2)C1` [Compound A95, 4-(1H-indol-5-yl)-N-methyl-N-((1R,3S)-3-propionylamino-cyclopentyl)-benzamide], the IC50 is less than 300 nM.
Under `CCC(=O)N[C@H]1CC[C@@H](N(C)C(=O)c2ccc(-c3ccc(C(C)C)cc3)cc2)C1` [Compound A96, 4′-isopropyl-biphenyl-4-carboxylic acid methyl-((1R,3S)-3-propionylamino-cyclopentyl)-amide] stands 300 to 3000 nM; under `CCC(=O)N[C@H]1CC[C@@H](N(C)C(=O)c2ccc(-c3ccc(C(=O)OC)cc3F)cc2)C1` [Compound A97, 2-fluoro-4′-[methyl-((1R,3S)-3-propionylamino-cyclopentyl)-carbamoyl]-biphenyl-4-carboxylic acid methyl ester], less than 300 nM.
Under `CCC(=O)N[C@H]1CC[C@@H](N(C)C(=O)c2ccc(-c3ccc(OC(F)(F)F)c(F)c3)cc2)C1` [Compound A98, 3′-fluoro-4′-trifluoromethoxy-biphenyl-4-carboxylic acid methyl-((1R,3S)-3-propionylamino-cyclopentyl)-amide] stands less than 300 nM; under `CCC(=O)N[C@H]1CC[C@@H](N(C)C(=O)c2ccc(-c3ccc(OC)cc3F)cc2)C1` [Compound A99, 2′-fluoro-4′-methoxy-biphenyl-4-carboxylic acid methyl-((1R,3S)-3-propionylamino-cyclopentyl)-amide], less than 300 nM.
Under `CCC(=O)N[C@H]1CC[C@@H](N(C)C(=O)c2ccc(-c3ccc4[nH]cc(C#N)c4c3)cc2)C1` [Compound A99a, 4-(3-cyano-1H-indol-5-yl)-N-methyl-N-((1R,3S)-3-propionylamino-cyclopentyl)-benzamide] stands less than 300 nM; under `CCC(=O)N[C@H]1CC[C@@H](N(C)C(=O)c2ccc(-c3ccc4[nH]nc(C)c4c3)cc2)C1` [Compound A100, N-methyl-4-(3-methyl-1H-indazol-5-yl)-N-((1R,3S)-3-propionylamino-cyclopentyl)-benzamide], less than 300 nM.

What is called IC50 is the concentration at which inhibition is half-maximal.
